Experimental data reported in patent publication US20250353891A1 (MEDIMMUNE LIMITED, priority 2022, published 2025).
Where two headings read alike, the source gives them in different places. Starred links: 1 amine or outer side, 2 acyl side, 3 side chain; linkers in the order of their positions; H or OH if unused. Non-standard residues stand in square brackets, D forms with d. Residues, ends and D or L forms follow the SMILES beside them. Groups on a side chain read outwards from the residue. *: point of attachment. C20 diacid = O=C(O)CCCCCCCCCCCCCCCCCCC(=O)*; C18 diacid = O=C(O)CCCCCCCCCCCCCCCCC(=O)*; γGlu = O=C(O)[C@H](CCC(=O)[*:2])N[*:1]; αMeF = C[C@](N)(Cc1ccccc1)C(=O)O; PEG2 = NCCOCCOCCC(=O)O; AEEA = NCCOCCOCC(=O)O; Aib = CC(C)(N)C(=O)O

How the values were obtained:
[1] = biological target: human glucagon receptor (hGCGR) (Homo sapiens, UniProt P47871); test: cAMP production (HTRF) in CHO cells expressing hGCGR; format: cell-based; parameters: expressed in transfected cells; conditions: cAMP, CHO cells, 0.1% BSA, geometric mean
How it was run: (§1)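 Potency values represent EC50 from 4-parameter logistic curves of HTRF % Delta F signal. Receptor-expressing CHO cells (hGCGR 2×10^5 cells/mL, hGLP-1R 1×10^5 cells/mL) were exposed for 30 min at room temperature before two-step cAMP detection.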

[2] = biological target: human GLP-1 receptor (hGLP-1R) (Homo sapiens, UniProt P43220); test: cAMP production (HTRF) in CHO cells expressing hGLP-1R; format: cell-based; parameters: expressed in transfected cells; conditions: for % Relative Potency Ratio: % GLP-1R activity relative to GLP-1 / % GlucR activity relative to glucagon
How it was run: as §1

[3] = cAMP, CHO cells, 0.1% BSA, geometric mean, read-out: hGLP-1R EC50

Chain of human glucagon receptor (hGCGR) (P47871 26-477): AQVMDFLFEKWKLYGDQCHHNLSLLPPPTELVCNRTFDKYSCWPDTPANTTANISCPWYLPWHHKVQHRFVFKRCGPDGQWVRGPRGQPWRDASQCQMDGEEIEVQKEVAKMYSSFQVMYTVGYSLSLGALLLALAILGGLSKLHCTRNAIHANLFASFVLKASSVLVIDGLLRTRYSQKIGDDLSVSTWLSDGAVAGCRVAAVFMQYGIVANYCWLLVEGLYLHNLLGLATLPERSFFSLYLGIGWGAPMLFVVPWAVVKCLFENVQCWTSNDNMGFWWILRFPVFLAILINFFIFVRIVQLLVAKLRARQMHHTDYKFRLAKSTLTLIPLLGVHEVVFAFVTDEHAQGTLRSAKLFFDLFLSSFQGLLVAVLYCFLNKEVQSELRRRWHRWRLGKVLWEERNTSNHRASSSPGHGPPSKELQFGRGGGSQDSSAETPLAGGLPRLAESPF
Chain of human GLP-1 receptor (hGLP-1R) (P43220 24-463): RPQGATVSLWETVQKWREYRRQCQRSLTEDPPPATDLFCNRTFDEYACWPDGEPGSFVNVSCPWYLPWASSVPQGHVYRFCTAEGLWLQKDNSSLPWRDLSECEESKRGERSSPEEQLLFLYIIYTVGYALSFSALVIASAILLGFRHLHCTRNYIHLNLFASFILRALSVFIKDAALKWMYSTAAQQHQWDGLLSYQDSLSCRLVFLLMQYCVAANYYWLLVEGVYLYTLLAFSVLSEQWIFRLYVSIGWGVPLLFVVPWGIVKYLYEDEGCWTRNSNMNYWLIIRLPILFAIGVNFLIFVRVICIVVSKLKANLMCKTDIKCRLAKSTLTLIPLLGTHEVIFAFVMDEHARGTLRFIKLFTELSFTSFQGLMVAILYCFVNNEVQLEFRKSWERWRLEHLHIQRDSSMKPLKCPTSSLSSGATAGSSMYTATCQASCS

`CC[C@H](C)[C@H](NC(=O)[C@H](Cc1c[nH]c2ccccc12)NC(=O)[C@H](CCCCNC(=O)CCOCCOCCNC(=O)CCOCCOCCNC(=O)CC[C@H](NC(=O)CC[C@H](NC(=O)CCCCCCCCCCCCCCCCCCC(=O)O)C(=O)O)C(=O)O)NC(=O)[C@@H](NC(=O)[C@H](Cc1ccccc1)NC(=O)[C@H](CC(=O)O)NC(=O)[C@H](CCC(N)=O)NC(=O)[C@H](C)NC(=O)[C@H](C)NC(=O)[C@H](CCC(N)=O)NC(=O)[C@H](CO)NC(=O)[C@H](CC(=O)O)NC(=O)[C@H](CC(C)C)NC(=O)[C@](C)(Cc1ccccc1)NC(=O)[C@H](CCCCN)NC(=O)[C@H](CO)NC(=O)[C@@H](NC(=O)[C@H](CC(=O)O)NC(=O)[C@H](CO)NC(=O)[C@@H](NC(=O)[C@](C)(Cc1ccccc1)NC(=O)[C@H](CO)NC(=O)CNC(=O)[C@H](Cc1c[nH]cn1)NC(=O)C(C)(C)NC(=O)[C@@H](N)Cc1c[nH]cn1)[C@@H](C)O)C(C)C)C(C)C)C(=O)N[C@@H](C)C(=O)N[C@@H](CC(N)=O)C(=O)N[C@H](C(N)=O)[C@@H](C)O` [Peptide 355] (H-H[Aib]HGS[αMeF]TSDVSK[αMeF]LDSQAAQDFVK([PEG2-PEG2-γGlu-γGlu-C20 diacid])WIANT-NH2; N-terminus assumed) was tested, and the EC50 ([1]; hGluc-R EC50 (pM)) was 478 pM, the “% Relative Potency Ratio” value [2] was 2.2 and the EC50 ([2]; hGLP-1R EC50 (pM)) was 424 pM.
`CC[C@H](C)[C@H](NC(=O)[C@H](Cc1c[nH]c2ccccc12)NC(=O)[C@H](CCCCNC(=O)COCCOCCNC(=O)COCCOCCNC(=O)CC[C@H](NC(=O)CCCCCCCCCCCCCCCCCCC(=O)O)C(=O)O)NC(=O)[C@@H](NC(=O)[C@H](Cc1ccccc1)NC(=O)[C@H](CC(=O)O)NC(=O)[C@H](CCC(N)=O)NC(=O)[C@H](C)NC(=O)[C@H](C)NC(=O)[C@H](CCC(N)=O)NC(=O)[C@H](CO)NC(=O)[C@H](CC(=O)O)NC(=O)[C@H](CC(C)C)NC(=O)[C@](C)(Cc1ccccc1)NC(=O)[C@H](CCCCN)NC(=O)[C@H](CO)NC(=O)[C@@H](NC(=O)[C@H](CC(=O)O)NC(=O)[C@H](CO)NC(=O)[C@@H](NC(=O)[C@](C)(Cc1ccccc1)NC(=O)[C@H](CO)NC(=O)CNC(=O)[C@H](Cc1c[nH]cn1)NC(=O)C(C)(C)NC(=O)[C@@H](N)Cc1c[nH]cn1)[C@@H](C)O)C(C)C)C(C)C)C(=O)N[C@@H](C)C(=O)N[C@@H](CC(N)=O)C(=O)N[C@H](C(N)=O)[C@@H](C)O` [Peptide 356] (H-H[Aib]HGS[αMeF]TSDVSK[αMeF]LDSQAAQDFVK([AEEA-AEEA-γGlu-C20 diacid])WIANT-NH2; N-terminus assumed) was tested, and the EC50 ([1]; hGluc-R EC50 (pM)) was 316 pM, the “% Relative Potency Ratio” value [2] was 2.1 and the EC50 ([2]; hGLP-1R EC50 (pM)) was 304 pM.
`CC[C@H](C)[C@H](NC(=O)[C@H](Cc1c[nH]c2ccccc12)NC(=O)[C@H](CCCCNC(=O)COCCOCCNC(=O)COCCOCCNC(=O)CC[C@H](NC(=O)CCCCCCCCCCCCCCCCC(=O)O)C(=O)O)NC(=O)[C@@H](NC(=O)[C@H](Cc1ccccc1)NC(=O)[C@H](CC(=O)O)NC(=O)[C@H](CCC(N)=O)NC(=O)[C@H](C)NC(=O)[C@H](C)NC(=O)[C@H](CCC(N)=O)NC(=O)[C@H](CO)NC(=O)[C@H](CC(=O)O)NC(=O)[C@H](CC(C)C)NC(=O)[C@](C)(Cc1ccccc1)NC(=O)[C@H](CCCCN)NC(=O)[C@H](CO)NC(=O)[C@@H](NC(=O)[C@H](CC(=O)O)NC(=O)[C@H](CO)NC(=O)[C@@H](NC(=O)[C@](C)(Cc1ccccc1)NC(=O)[C@H](CO)NC(=O)CNC(=O)[C@@H](NC(=O)C(C)(C)NC(=O)[C@@H](N)Cc1c[nH]cn1)[C@@H](C)CC)[C@@H](C)O)C(C)C)C(C)C)C(=O)N[C@@H](C)C(=O)N[C@@H](CC(N)=O)C(=O)N[C@H](C(N)=O)[C@@H](C)O` [Peptide 358] (H-H[Aib]IGS[αMeF]TSDVSK[αMeF]LDSQAAQDFVK([AEEA-AEEA-γGlu-C18 diacid])WIANT-NH2; N-terminus assumed) showed an EC50 ([1]; hGluc-R EC50 (pM)) of 16000 pM and an EC50 ([2]; hGLP-1R EC50 (pM)) of 74.9 pM.
In the case of `CC[C@H](C)[C@H](NC(=O)[C@H](Cc1c[nH]c2ccccc12)NC(=O)[C@H](CCCCNC(=O)COCCOCCNC(=O)COCCOCCNC(=O)CC[C@H](NC(=O)CCCCCCCCCCCCCCCCC(=O)O)C(=O)O)NC(=O)[C@@H](NC(=O)[C@H](Cc1ccccc1)NC(=O)[C@H](CC(=O)O)NC(=O)[C@H](CCC(N)=O)NC(=O)[C@H](C)NC(=O)[C@H](C)NC(=O)[C@H](CCCNC(=N)N)NC(=O)[C@H](CO)NC(=O)[C@H](CC(=O)O)NC(=O)[C@H](CC(C)C)NC(=O)[C@](C)(Cc1ccccc1)NC(=O)[C@H](CCCCN)NC(=O)[C@H](CO)NC(=O)[C@@H](NC(=O)[C@H](CC(=O)O)NC(=O)[C@H](CO)NC(=O)[C@@H](NC(=O)[C@](C)(Cc1ccccc1)NC(=O)[C@H](CO)NC(=O)CNC(=O)[C@@H](NC(=O)C(C)(C)NC(=O)[C@@H](N)Cc1c[nH]cn1)[C@@H](C)CC)[C@@H](C)O)C(C)C)C(C)C)C(=O)N[C@@H](C)C(=O)N[C@@H](CC(N)=O)C(=O)N[C@H](C(N)=O)[C@@H](C)O` [Peptide 359] (H-H[Aib]IGS[αMeF]TSDVSK[αMeF]LDSRAAQDFVK([AEEA-AEEA-γGlu-C18 diacid])WIANT-NH2), the EC50 ([1]; read-out: hGluc-R EC50) is reported as 5050 pM, the “% Relative Potency Ratio” value [2] is reported as 216.6 and the EC50 [2, 3] is reported as 46.1 pM.
With `CC[C@H](C)[C@H](NC(=O)[C@H](Cc1c[nH]c2ccccc12)NC(=O)[C@H](CCCCNC(=O)COCCOCCNC(=O)COCCOCCNC(=O)CC[C@H](NC(=O)CCCCCCCCCCCCCCCCCCC(=O)O)C(=O)O)NC(=O)[C@@H](NC(=O)[C@H](Cc1ccccc1)NC(=O)[C@H](CC(=O)O)NC(=O)[C@H](CCC(N)=O)NC(=O)[C@H](C)NC(=O)[C@H](C)NC(=O)[C@H](CCCNC(=N)N)NC(=O)[C@H](CO)NC(=O)[C@H](CC(=O)O)NC(=O)[C@H](CC(C)C)NC(=O)[C@](C)(Cc1ccccc1)NC(=O)[C@H](CCCCN)NC(=O)[C@H](CO)NC(=O)[C@@H](NC(=O)[C@H](CC(=O)O)NC(=O)[C@H](CO)NC(=O)[C@@H](NC(=O)[C@](C)(Cc1ccccc1)NC(=O)[C@H](CO)NC(=O)CNC(=O)[C@@H](NC(=O)C(C)(C)NC(=O)[C@@H](N)Cc1c[nH]cn1)[C@@H](C)CC)[C@@H](C)O)C(C)C)C(C)C)C(=O)N[C@@H](C)C(=O)N[C@@H](CC(N)=O)C(=O)N[C@H](C(N)=O)[C@@H](C)O` [Peptide 360] (H-H[Aib]IGS[αMeF]TSDVSK[αMeF]LDSRAAQDFVK([AEEA-AEEA-γGlu-C20 diacid])WIANT-NH2; N-terminus assumed) the EC50 ([1]; read-out: hGluc-R EC50) was 5640 pM, the “% Relative Potency Ratio” value [2] was 103.5 and the EC50 [2, 3] was 108 pM.
`CC[C@H](C)[C@H](NC(=O)[C@H](Cc1c[nH]c2ccccc12)NC(=O)[C@H](CCCCNC(=O)COCCOCCNC(=O)COCCOCCNC(=O)CC[C@H](NC(=O)CC[C@H](NC(=O)CCCCCCCCCCCCCCCCC(=O)O)C(=O)O)C(=O)O)NC(=O)[C@@H](NC(=O)[C@H](Cc1ccccc1)NC(=O)[C@H](CC(=O)O)NC(=O)[C@H](CCC(N)=O)NC(=O)[C@H](C)NC(=O)[C@H](C)NC(=O)[C@H](CCCNC(=N)N)NC(=O)[C@H](CO)NC(=O)[C@H](CC(=O)O)NC(=O)[C@H](CC(C)C)NC(=O)[C@](C)(Cc1ccccc1)NC(=O)[C@H](CCCCN)NC(=O)[C@H](CO)NC(=O)[C@@H](NC(=O)[C@H](CC(=O)O)NC(=O)[C@H](CO)NC(=O)[C@@H](NC(=O)[C@](C)(Cc1ccccc1)NC(=O)[C@H](CO)NC(=O)CNC(=O)[C@H](Cc1c[nH]cn1)NC(=O)C(C)(C)NC(=O)[C@@H](N)Cc1c[nH]cn1)[C@@H](C)O)C(C)C)C(C)C)C(=O)N[C@@H](C)C(=O)N[C@@H](CC(N)=O)C(=O)N[C@H](C(N)=O)[C@@H](C)O` [Peptide 362] (H-H[Aib]HGS[αMeF]TSDVSK[αMeF]LDSRAAQDFVK([AEEA-AEEA-γGlu-γGlu-C18 diacid])WIANT-NH2; N-terminus assumed) was tested, and the EC50 ([1]; read-out: hGluc-R EC50) was 42.8 pM, the “% Relative Potency Ratio” value [2] was 1.5 and the EC50 [2, 3] was 54.8 pM.
